According to article PMC6849653, “Volasertib preclinical activity in high-risk hepatoblastoma” (Oncotarget, 2019):
Entries after “also recorded” stand apart in the source; their conditions may differ. Read-outs that look alike come from different tables or passages of the source.

How the values were obtained:
HB-243 = assay: Cell proliferation study, HB-243; type: cell-based, human; details: 72 h drug exposure, Cell-Titer Glo, average of quadruplicates, read-out: absolute IC50, HB-243
Protocol: (§1) On day 0, cells were trypsinized and plated into white walled 384-well plates. On day 1, when cells were 70% confluent, volasertib (S2235, SelleckChem, Houston, TX), SN38 (S4908, SelleckChem) or vincristine (S1241, SelleckChem) suspended in DMSO were added to plates using a Tecan D300e drug printer (Tecan Life Sciences, Switzerland), ensuring less than 1% DMSO. […] Absolute IC50 values were calculated using GraphPad Prism (GraphPad, San Diego, CA). Synergy values were calculated using CalcuSyn (Biosoft, Cambridge, UK) software.

HB-279 [1] = assay: Cell proliferation study, HB-279; type: cell-based, human; details: 72 h drug exposure, Cell-Titer Glo, average of quadruplicates, read-out: absolute IC50, HB-279
Protocol: as §1

HB-282 = assay: Cell proliferation study, HB-282; type: cell-based, human; details: 72 h drug exposure, Cell-Titer Glo, average of quadruplicates, read-out: absolute IC50, HB-282
Protocol: as §1

HB-284 = assay: Cell proliferation study, HB-284; type: cell-based, human; details: 72 h drug exposure, Cell-Titer Glo, average of quadruplicates, read-out: absolute IC50, HB-284
Protocol: as §1

HB-295 = assay: Cell proliferation study, HB-295; type: cell-based, human; details: 72 h drug exposure, Cell-Titer Glo, average of quadruplicates, read-out: absolute IC50, HB-295
Protocol: as §1

HB-279 [2] = assay: Cell cycle analysis by flow cytometry (PI staining), HB-279; type: cell-based, human; details: for Percent of cells in S phase / Percent of cells in G2/M / Percent of cells in G1: HB-279, 72 hour treatment, 150 nM volasertib, 3 nM SN38, N=3; for Percent of cells in S phase: DMSO 16.1; for Percent of cells in G2/M: DMSO 26.8; for Percent of cells in G1: DMSO 56.5; for cell cycle arrest as compared to vehicle control: clinically achievable concentrations, 72 hours
Protocol: After a 72-hour drug treatment, cells were collected and fixed in ice cold 70% ethanol. After rehydration, cells were stained using the Guava Cell Cycle Reagent for Flow Cytometer (4500-0220, MilliporeSigma, Germany) according to the product protocol. Cells were analyzed for propidium iodide using the Guava EasyCyte 8HT (MilliporeSigma). Flow data was analyzed using CytoBank software (Cytobank, Santa Clara, CA).

[3] = cited from earlier work
normal human hepatocytes = assay: 60-agent chemical screen, cell viability (Cell-Titer Glo), hepatocytes; type: cell-based; details: Hepatocyte;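 further: cells were plated onto pre-diluted drug concentrations in 384-well plates, and viability was read after 72 h as CellTiter-Glo 2.0 luminescence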
Protocol: (§2) On day 0, cells were trypsinized and plated into a white walled 384-well plate containing pre-diluted known concentrations of various drugs. After 72 hours, an equal volume of Cell-Titer Glo 2.0 (G9243, Promega) was added to each well, incubated at room temperature while rocking in the dark for 15 minutes, followed by luminescence acquisition with a BioTek Synergy HT plate reader (BioTek, Winooski, VT).

HepG2 = assay: 60-agent chemical screen, cell viability (Cell-Titer Glo), HepG2; type: cell-based; details: Homo sapiens, 60-agent screen, 72 hours, a value of 10,000 indicates that the drug did not inhibit viability, read-out: absolute IC50, HepG2;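 further: luminescence read-out in 384-well plates, with cells plated directly onto drug dilutions of known concentration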
Protocol: as §2

Huh-6 = assay: 60-agent chemical screen, cell viability (Cell-Titer Glo), Huh-6; type: cell-based; details: Homo sapiens, 60-agent screen, 72 hours, a value of 10,000 indicates that the drug did not inhibit viability, read-out: absolute IC50, Huh-6
Protocol: as §2

HB-214 [4] = assay: 60-agent chemical screen, cell viability (Cell-Titer Glo), HB-214; type: cell-based; details: Homo sapiens; 60-agent screen, 72 hours; a value of 10,000 indicates that the drug did not inhibit viability; read-out: absolute IC50, HB-214;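 further: viability read as luminescence once Cell-Titer Glo 2.0 reagent was added to drug-treated cells in 384-well plates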
Protocol: as §2

[5] = test system: hepatoblastoma cell lines HepG2, Huh-6 and HB-214 versus hepatocytes; assay: 60-agent chemical screen, hepatoblastoma cell lines taken together / versus hepatocytes
Protocol: as §2

[6] = test system: six hepatoblastoma cell cultures; assay: Cell proliferation study, six hepatoblastoma cell cultures together; type: cell-based, human
Protocol: as §1

HB-214 [7] = assay: Cell proliferation study, HB-214; type: cell-based; details: Homo sapiens; 72 h drug exposure, Cell-Titer Glo, average of quadruplicates; read-out: absolute IC50, HB-214
Protocol: as §1

HB-214 PDX = assay: HB-214 hepatoblastoma PDX in athymic nude mice; type: in vivo; details: volasertib 30 mg/kg IV 2qwk, irinotecan 10 mg/kg IP q5d, alone or combined; 6 mice per group
Protocol: These fragments were engrafted in the interscapular region of 6-8 week-old female athymic nude mice (Athymic NudeFoxn1^nu, ENVIGO, Gannat, France). After latency period, mice with a subcutaneously growing tumor between 62 and 256 mm^3 were allocated to each treatment arm according to their tumor volume to obtain homogenous mean and median tumor volume in each arm. Treatments were randomly attributed to boxes housing up to five mice. […] Tumor volume (TV) was evaluated by caliper measurement, 2 or 3 times a week during latency and treatment period. The formula Total Volume (TV) (mm^3) = [length (mm) x width (mm)^2]/2 was used, where the length and the width are the longest and the shortest diameters of the tumor. The tumor growth delay index (TGDI) was calculated as the median growth delay in the treated group divided by the median growth delay in the control group, and represented the x-fold time to reach 5-fold the TV at D0.The ratio between the mean TV of a treated group (T) and the mean TV of the control group (C) was calculated at each measurement, and represented the antitumoral activity of the tested compound(s). The tumor growth rate, evaluated by the formula [DT/T0]-1 where DT is the delta of tumor size between the considered day and the day of enrolment and T0 is mean TV at D0, gives the percentage of growth compared with the initial day. […]

PLK1 = test system: PLK1; set-up: method as in PMID 19383823; details: read-out: cell-free enzyme IC50, PLK1; cited from earlier work
PLK2 = test system: PLK2; set-up: method as in PMID 19383823; details: read-out: cell-free enzyme IC50, PLK2; cited from earlier work
PLK3 = test system: PLK3; set-up: method as in PMID 19383823; details: read-out: cell-free enzyme IC50, PLK3; cited from earlier work
SMMC7721 = test system: SMMC7721; set-up: method as in PMID 27904765; details: hepatocellular carcinoma cell line; cited from earlier work
SK-Hep1 = test system: SK-Hep1; set-up: method as in PMID 27904765; details: hepatocellular carcinoma cell line; cited from earlier work
[8] = volasertib; cited from earlier work

Q: For `CCc1c2c(nc3ccc(O)cc13)-c1cc3c(c(=O)n1C2)COC(=O)[C@]3(O)CC` [SN38], which IC50 (HB-243) is on record?
A: 160 nM

Q: And the IC50 (HB-279 [1])?
A: 200 nM

Q: And the IC50 (HB-282)?
A: 26 nM

Q: What about the IC50 (HB-284) of the same compound?
A: 210 nM

Q: And the IC50 (HB-295)?
A: 500 nM

Q: And the “Percent of cells in S phase” value (HB-279 [2])?
A: 17.7%

Q: What about the “Percent of cells in G2/M” value (HB-279 [2]) of the same compound?
A: 34.3%

Q: What about the “Percent of cells in G1” value (HB-279 [2]) of the same compound?
A: 47.6%

Q: What about the “cell cycle arrest as compared to vehicle control” value (HB-279 [2]) of the same compound?
A: modest G2/M phase arrest

Q: And the “AUC0-∞” value ([3]; SN38, pediatric study)?
A: 0.214 µM·h

Q: What about the Cmax ([3]; SN38 from clinical trials) of the same compound?
A: 120 nM

Q: What does the source list for `CC(=O)Nc1cccc(-n2c(=O)n(C3CC3)c(=O)c3c(Nc4ccc(I)cc4F)n(C)c(=O)c(C)c32)c1` [trametinib]?
A: IC50 (normal human hepatocytes; 60-agent screen, 72 hours, a value of 10,000 indicates that the drug did not inhibit viability, read-out: absolute IC50, Hepatocytes): > 10000 nM; IC50 (HepG2): > 10000 nM; IC50 (Huh-6): > 10000 nM; IC50 (HB-214 [4]): 210 nM; effectiveness across the three hepatoblastoma cell lines ([5]; 60-agent screen): only effective in one cell line out of three

Q: What does the source list for `CC[C@]1(O)C[C@H]2CN(CCc3c([nH]c4ccccc34)[C@@](C(=O)OC)(c3cc4c(cc3OC)N(C=O)[C@H]3[C@@](O)(C(=O)OC)[C@H](OC(C)=O)[C@]5(CC)C=CCN6CC[C@]43[C@@H]65)C2)C1` [vincristine]?
A: sensitivity of hepatoblastoma cell lines to vincristine ([6]; 72hr drug exposure, Supplementary Figure 4): Several cell lines were highly resistant; Cmax ([3]; published Cmax of vincristine): 90 nM

Q: Which IC50 (normal human hepatocytes; as restated in the discussion, read-out: IC50, normal hepatocytes) does the source give for `CC[C@@H]1C(=O)N(C)c2cnc(Nc3ccc(C(=O)N[C@H]4CC[C@H](N5CCN(CC6CC6)CC5)CC4)cc3OC)nc2N1C(C)C` [volasertib] here?
A: > 10000 nM

Q: And the IC50 (HepG2)?
A: 528 nM

Q: And the IC50 (Huh-6)?
A: 3820 nM

Q: And the IC50 (HB-214 [4])?
A: 360 nM

Q: And the IC50 (HB-214 [7])?
A: 725 nM

Q: And the IC50 (HB-243; Homo sapiens)?
A: 252 nM

Q: What about the IC50 (HB-279 [1]; Homo sapiens) of the same compound?
A: 2020 nM

Q: And the IC50 (HB-282; Homo sapiens)?
A: 2130 nM

Q: And the IC50 (HB-284; Homo sapiens)?
A: 3300 nM

Q: And the IC50 (HB-295; Homo sapiens)?
A: 1170 nM

Q: What about the IC50 ([6]; Homo sapiens, range over HB-214, HB-243, HB-279, HB-282, HB-284, HB-295, read-out: IC50 across all six hepatoblastoma cell cultures) of the same compound?
A: < 10000 nM

Q: And the “Percent of cells in S phase” value (HB-279 [2])?
A: 14.2%

Q: And the “Percent of cells in G2/M” value (HB-279 [2])?
A: 40.7%

Q: And the “Percent of cells in G1” value (HB-279 [2])?
A: 44.7%

Q: And the “cell cycle arrest as compared to vehicle control” value (HB-279 [2])?
A: cell cycle arrest in G2/M

Q: And the “tumor growth (mean tumor volume over time)” value (HB-214 PDX)?
A: appreciable and cytostatic; also recorded: slowed

Q: And the IC50 (PLK1)?
A: 0.87 nM

Q: And the IC50 (PLK2)?
A: 5 nM

Q: And the IC50 (PLK3)?
A: 56 nM

Q: What about the IC50 (SMMC7721) of the same compound?
A: 3970 nM

Q: What about the IC50 (SK-Hep1) of the same compound?
A: 7020 nM

Q: And the Cmax ([3]; measured in clinical trials)?
A: 1220 nM

Q: And the side effects [8]?
A: neutropenia and anemia

Q: And the IC50 ([5]; Homo sapiens, Hepatocyte, read-out: IC50, cancer cells)?
A: 360 to 528 nM
